Reference: patent publication US20060263453A1, “Methods and compositions for modulating glutamate dehydrogenase” (priority 2004, published 2006)

Legend:
islets = test: [U-14C]-glutamine oxidation in islets; assay type: cell-based, rat
Description: In a first experiment, a batch of 100 islets were incubated with glucose-free Krebs-Ringer bicarbonate buffer, as described herein, containing 20 μM EGCG or 20 μM EGC and 2 mM glutamine for 60 minutes. The islets were then incubated in the presence of varying concentrations of BCH (shown in FIG. 7A) for 60 minutes, and for an additional 60 minutes in the presence of 2 mCi [U-^14C]-glutamine (NEN-Life Science Products, UK). Next, [U-^14C]-glutamine oxidation in the incubated islets was measured. A trap filter was placed in each tightly sealed glass tube of the perifusion apparatus to collect the ^14CO2 produced by the islets, and the amount of radioactivity was determined by liquid scintillation counting. The results are summarized in FIG. 7A, and are presented as means±S.E. from 4 separate experiments. […] The islets were then incubated in the presence of 10 mM BCH (or no BCH—to measure “baseline” glutamine oxidation levels) for 60 minutes. The islets were then incubated for an additional 60 minutes in the presence of 2 mCi [U-^14C]-glutamine (NEN-Life Science Products, UK). Next, [U-^14C]-glutamine oxidation in the incubated islets was measured, as described above.

rat islets [1] = test: BCH-stimulated insulin secretion and oxygen consumption in perifused islets; assay type: cell-based, Wistar rat; settings: 20 μM
Description: In this Example, the effects of EGCG and EGC on LSIS were measured, while simultaneously monitoring respiration rates. More particularly, the effects of EGCG (20 μM) and EGC (20 μM) on BCH-stimulated insulin secretion were measured. First, 1000 adult male Wistar rat islets were isolated as described above and were cultured on a glass perfusion chamber in 10 mM glucose for 3 days. Next, the islets were perifused in an oxygen consumption measurement apparatus containing BCH, along with 0 μM EGCG and 0 μM EGC, 20 μM EGCG, or 20 μM EGC. The perifusion apparatus used in these Examples consisted of a peristaltic pump, a water bath (37° C.), a gas exchanger (artificial lung: media flowed through the thin-walled silastic tubing loosely coiled in a glass jar that contained 20% O2 and 5% CO2 balanced with N2), and fraction collector. All transfer lines were insulated. After the system was provided with 20 μM EGCG or 20 μM EGC, oxygen partial pressure was recorded every 10 seconds by phosphorescence lifetimes of an oxygen-sensitive porphyrin (palladium-mesotetra; 4-carboxyphenyl porphyrin dendrimer). The dye molecules were excited with pulses at 524 nm from a UV lead and emission was measured at 690 nm. The inflow oxygen tension was measured in the absence of islets in the chamber before and after each experiment. The perifusate was a Krebs buffer (pH 7.4) containing 2.2 mM Ca^2+, 1% bovine serum albumin equilibrated with 20% O2 and 5% CO2 balanced with N2. The flow rate was […] and samples were collected every 2 minutes for insulin measurements by radioimmunoassay. The results are summarized in FIG. 6, and are presented as means±S.E. for 1000 islets from 3 separate experiments for EGCG (and from 1 experiment for EGC). Due to the high density of data, S.E. is only shown in every 20 samples.

rat islets [2] = test: glucose stimulated insulin secretion (GSIS), short run-down (50 minutes), glucose ramp; assay type: cell-based; settings: 20 μM, FIGS. 8A and 8B
Description: In this Example, the effect of EGCG on glucose stimulated insulin secretion (GSIS) was examined. Isolated rat islets were cultured with 20 mM glucose (FIG. 8A) and 10 mM glucose (FIG. 8B) for 3 days, then perifused in the absence of glucose for 50 minutes and in the presence of 0 μM EGCG; 20 μM EGCG; or 20 μM EGC. Next, the islets were stimulated by a glucose ramp (0 to 25 mM, 0.5 mM/minute). Finally, the islets were exposed to 30 mM KCl. Insulin levels were measured every minute by radioimmunoassay. The results shown in FIG. 8A are presented as means±S.E. for 100 islets from 3 separate experiments (and means±S.E. for 100 islets from 1 experiment for FIG. 8B).

rat islets [3] = test: glucose stimulated insulin secretion in 120 minute run-down islets; assay type: cell-based
Description: Under brief “run-down” conditions used for the above GSIS analysis, where glucose was removed from the cells for only […], the levels of high-energy metabolites (i.e., GTP and ATP) have not been depleted and these effectively shut down GDH activity. This, in turn, eliminated any effect GDH might have on insulin secretion. Therefore, the effects of EGCG were also tested on […] that had been “run-down” for a longer period of time (120 minutes) prior to glucose stimulation (FIG. 11). Specifically, isolated rat islets were cultured with 10 mM glucose for 3 days and then perifused in the absence of glucose and in the presence of 0 or 20 μM EGCG (or 20 μM EGC) for “run-down” periods of 120 minutes prior to stimulation with a glucose ramp (0 to 25 mM, 0.5 mM/minute). Finally, islets were exposed to 30 mM KCl. The insert highlighted the insulin secretion from time=120 minutes to 140 minutes.

Bovine GDH (bGDH) = biological target: T1, Bovine GDH (bGDH) (Bos taurus, UniProt P00366); test: reductive amination reaction catalyzed by bovine GDH (NADH absorbance at 340 nm); assay type: biochemical; settings: FIG. 1A
T1 construct: purchased Sigma Aldrich Chemical Company (St. Louis, Mo.)
Description: In this Example, the effects of epigallocatechin gallate (EGCG), epigallocatechin (EGC), epicatechin gallate (ECG), and epicatechin (EC) from Camellia sinensis on GDH activity were tested. Bovine GDH (bGDH) was used in this Example, which was obtained as an aqueous (NH4)2SO4 suspension from Sigma Aldrich Chemical Company (St. Louis, Mo.).
First, aliquots of GDH were extensively dialyzed against 0.1M sodium phosphate buffer, pH 7.0, which contained 1 mM ethylenediaminetetraacetic acid (EDTA). The enzyme concentrations were adjusted to 1 mg/ml and the amount of enzyme added to the reaction mixture, for kinetic analysis, was adjusted to yield optimal steady state velocity measurements. All solutions were made immediately prior to use. Enzyme assays were performed by monitoring reduced coenzyme absorbance at 340 nm using a Shimadzu UV-1601 spectrophotometer. The reductive amination reactions were performed in 3 mL volumes at pH 7.0 in the presence of 0.1 mM nicotinamide adenine dinucleotide (NADH), 50 mM NH4Cl, and 5 mM 2-oxoglutarate. The rate of NADH oxidation was calculated using an extinction coefficient of 6.22 mM^−1 cm^−1.

[4] = ethanol, DMSO, dimethyl formamide; cited from earlier work

T1 sequence (P00366 58-558): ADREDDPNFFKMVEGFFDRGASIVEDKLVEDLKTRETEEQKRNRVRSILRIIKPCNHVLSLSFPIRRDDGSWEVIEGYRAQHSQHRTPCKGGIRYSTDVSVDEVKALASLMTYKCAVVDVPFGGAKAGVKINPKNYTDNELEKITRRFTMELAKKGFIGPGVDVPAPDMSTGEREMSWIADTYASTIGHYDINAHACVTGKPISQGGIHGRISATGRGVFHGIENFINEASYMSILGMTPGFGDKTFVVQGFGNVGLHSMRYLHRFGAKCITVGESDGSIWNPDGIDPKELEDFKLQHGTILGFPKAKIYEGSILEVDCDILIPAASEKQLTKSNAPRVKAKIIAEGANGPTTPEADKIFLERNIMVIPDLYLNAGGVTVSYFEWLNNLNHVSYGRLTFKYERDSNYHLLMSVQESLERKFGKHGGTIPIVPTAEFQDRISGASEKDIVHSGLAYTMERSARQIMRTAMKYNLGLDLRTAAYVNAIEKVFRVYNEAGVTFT

Question: For `NC1(C(=O)O)CC2CCC1C2` (stereo not drawn) [BCH, beta-2-aminobicyclo[2.2.1]heptane-2-carboxylic acid, reference compound], which “stimulation of glutamine oxidation” value (islets; 100 islets, 2 mM glutamine, FIG. 7A) is on record?
Answer: Its value is “dose-dependently stimulated”.

Question: Which “sensitization of the β-cells to BCH” value (rat islets [1]) does the source give for `Oc1cc(O)c2c(c1)O[C@H](c1cc(O)c(O)c(O)c1)[C@H](O)C2` [EGC, epigallocatechin, reference compound] here?
Answer: Its value is “slight sensitization”.

Question: And the “effect on LSIS (BCH-induced insulin secretion)” value (rat islets [1]; FIG. 6A)?
Answer: The value was “did not cause significant inhibition”.

Question: And the “effect on BCH-induced increase in respiration rates” value (rat islets [1]; FIG. 6B)?
Answer: Its value is “nor did it have as strong of an effect on respiration as compared to EGCG”.

Question: What about the “block of BCH stimulation of glutaminolysis (glutamine oxidation)” value (islets; 20 μM, 2 mM glutamine, FIG. 7A) of the same molecule?
Answer: Its value is “not”.

Question: And the “effect on GSIS” value (rat islets [2])?
Answer: The value was “neither EGC nor EGCG affected”.

Question: And the “potentiation of GSIS” value (rat islets [3]; 20 μM, 120 minute run-down, FIG. 11)?
Answer: The value was “not”.

Question: What about the “effect on KCl-stimulated release of insulin” value (rat islets [3]; 30 mM KCl) of the same molecule?
Answer: Its value is “neither EGCG or EGC affected”.

Question: What about the “sensitization of the cells at low glucose concentrations” value (rat islets [3]; FIG. 11, inset) of the same molecule?
Answer: The value was “slightly sensitize”.

Question: And the “potent inhibitor of GDH activity” value (Bovine GDH (bGDH))?
Answer: Its value is “not”.

Question: Which “potent inhibitor of GDH activity” value (Bovine GDH (bGDH)) does the source give for `O=C(O[C@@H]1Cc2c(O)cc(O)cc2O[C@@H]1c1ccc(O)c(O)c1)c1cc(O)c(O)c(O)c1` [ECG, (2R,3R)-2-(3,4-Dihydroxyphenyl)-3,4-dihydro-1 (2H)-benzopyran-3,5,7-triol 3-(3,4,5-trihydroxybenzoate)] here?
Answer: The value was “potent inhibitors”.

Question: And the “soluble in organic solvents” value [4]?
Answer: Its value is “soluble”.

Question: Which “effect on 10 mM BCH-stimulated glutamine oxidation” value (islets; 3 mM glutamine, FIG. 7B, 7C) does the source give for `[N-]=[N+]=CC(=O)CC[C@H](N)C(=O)O` [DON, 6-diazo-5-oxo-L-norleucine, reference compound] here?
Answer: Its value is “blocks glutaminolysis to levels lower than the unstimulated β-cells at high concentrations”.
